The values that follow come from patent US20180243298A1, “TRPV3 MODULATORS” (AbbVie Inc., priority 2015, published 2018).

Read-outs that look alike come from different tables or passages of the source.

Assay [1] has as its target T1, human TRPV3 (Homo sapiens, UniProt Q8NET8).
T1 construct: expressed in transfected cells; host or cells: HEK293
T1 sequence (Q8NET8 1-790): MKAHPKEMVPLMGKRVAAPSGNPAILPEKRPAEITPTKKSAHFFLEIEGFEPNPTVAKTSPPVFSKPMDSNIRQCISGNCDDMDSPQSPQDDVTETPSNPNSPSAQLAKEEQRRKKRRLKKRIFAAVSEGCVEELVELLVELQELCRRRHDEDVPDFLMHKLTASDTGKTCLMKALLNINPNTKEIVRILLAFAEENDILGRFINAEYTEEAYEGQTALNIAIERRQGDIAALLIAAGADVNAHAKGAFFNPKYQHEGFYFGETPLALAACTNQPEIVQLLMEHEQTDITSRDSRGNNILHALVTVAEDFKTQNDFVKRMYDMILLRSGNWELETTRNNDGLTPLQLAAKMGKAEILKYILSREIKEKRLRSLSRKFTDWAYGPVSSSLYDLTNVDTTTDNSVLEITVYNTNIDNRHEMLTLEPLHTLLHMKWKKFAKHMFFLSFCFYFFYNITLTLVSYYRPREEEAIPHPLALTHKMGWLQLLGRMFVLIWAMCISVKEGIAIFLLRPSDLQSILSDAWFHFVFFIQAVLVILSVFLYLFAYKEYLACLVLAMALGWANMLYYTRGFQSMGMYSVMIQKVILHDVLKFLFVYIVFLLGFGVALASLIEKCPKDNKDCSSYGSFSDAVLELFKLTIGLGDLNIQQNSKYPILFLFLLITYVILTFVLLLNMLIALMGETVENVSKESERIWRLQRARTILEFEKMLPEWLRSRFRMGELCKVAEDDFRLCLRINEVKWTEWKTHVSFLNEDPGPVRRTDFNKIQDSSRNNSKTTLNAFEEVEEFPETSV
Put plainly: Calcium flux assay (FLIPR TETRA), recombinant HEK293 cells expressing TRPV3, 2-APB response. The class given is cell-based. Conditions: 2-APB at its EC80. The essentials: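 Response is the peak fluorescence increase over baseline, as a percentage of the compound-free response to 2-APB at EC80. Calcium flux recorded on FLIPR TETRA in stable human or mouse TRPV3 HEK293 cells after 90–120 min Calcium-4 dye loading.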
Background: A change in cytosolic calcium serves as a functional read-out for many receptors and channels.

The test system of assay [2] is FITC-challenged mice. Kind of assay: Contact hypersensitivity (CHS) to FITC, ear swelling in mice. The class given is in vivo, mice (BALB/c). The note with it: reduction in ear skin thickness vs vehicle, 24 hours after FITC challenge; for inhibition in vivo at 10 mg/kg / inhibition in vivo at 30 mg/kg / inhibition in vivo at 100 mg/kg: Mus musculus, read-out: FITC % effect; for inhibition in vivo at 100 mg/kg: 100 mg/kg bid po. As to the method: (ii) In vivo Data The following protocol was used to evaluate the efficacy of a compound against contact hypersensitivity:
Young adult female BALB/c mice (18±2 g body weight at 6-8 weeks old) Charles River Laboratories) were maintained under pathogen-free conditions and housed in an animal room maintained t at temperature of 21±1° C. and a humidity of 43±5%. Induction of contact hypersensitivity (CHS) and ear thickness measurements for all animals were carried out under light anesthesia (3-5% isoflurane/oxygen) for 1-2 minutes.
Contact hypersensitivity consists of the afferent or initiation sensitizing phase, and the efferent or elicitation phase. The latter phase occurs when epidermal cells encounter a particular antigen to which the epidermal cells have previously been exposed, and is characterized in rodents by localized swelling in the skin.
Fluorescein isothiocyanate (FITC) was purchased from Sigma-Aldrich and dissolved in 1:1 in acetone/dibutylphthalate prior to epicutaneous application. Mice were sensitized by painting epicutaneously 40 uL of 0.5% FITC on the abdomen ventral skin shaved one day prior to sensitization. Six days later, mice were challenged by painting epicutaneously 20 uL total volume of 0.5% FITC on the right ear (10 uL on either side). Control mice were treated with vehicle only. Ear swelling was measured 24 hours after challenge. Treatment groups were dosed orally at a dose volume of 10 mL/kg with compounds either BID (1 hour prior to FITC challenge, 8 hours after first dose and 2 hours prior to ear swelling measurement at 24 hours post FITC challenge) or QD (1 hour prior to FITC challenge and 2 hours prior to ear swelling measurement at 24 hours post FITC challenge). Inflammation was determined by the degree of ear swelling of the hapten exposed ear compared with the untreated ear with a Quick Mini thickness-gauge caliber (Mitutoyo, Japan). The change in ear thickness after allergen treatment can be used to calculate the percent suppression of contact hypersensitivity.
The level of compound-mediated suppression of ear skin thickness in FITC-challenged mice is indicated in Table 2 wherein “A” refers to a reduction in ear skin thickness of >50%, “B” refers to a reduction in ear skin thickness of 30-50% and “C” refers to a reduction in ear skin thickness of <30% relative to vehicle-treated animals.

Broadly, the IC50 is the midpoint of a concentration-inhibition curve. As for `COc1ncnc(OC)c1C(=O)Nc1nc(C(F)(F)F)c(CN2CCC(F)CC2)s1` [Example 53, N-{5-[(4-fluoropiperidin-1-yl)methyl]-4-(trifluoromethyl)-1,3-thiazol-2-yl}-4,6-dimethoxypyrimidine-5-carboxamide], the IC50 in assay [1] is less than 50 nM. Also, in assay [2] (10 mg/kg bid po), the inhibition in vivo at 10 mg/kg lay within 30 to 50%.
Regarding `COc1ncnc(OC)c1C(=O)Nc1nc(C(F)(F)F)c(CN2CC[C@@H](F)C2)s1` [Example 58, N-[5-{[(3R)-3-fluoropyrrolidin-1-yl]methyl}-4-(trifluoromethyl)-1,3-thiazol-2-yl]-4,6-dimethoxypyrimidine-5-carboxamide], the IC50 in assay [1] was 50 to 100 nM. In assay [2] (10 mg/kg qd po), the inhibition in vivo at 10 mg/kg fell in the range of 30 to 50%.
Consider `COc1ncnc(OC)c1C(=O)Nc1nc(C(F)(F)F)c(-c2cncc(F)c2)s1` [Example 27, N-[5-(5-fluoropyridin-3-yl)-4-(trifluoromethyl)-1,3-thiazol-2-yl]-4,6-dimethoxypyrimidine-5-carboxamide], for which the half-maximal inhibitory concentration (IC50) in assay [1] is 50 to 100 nM. Further, the inhibition in vivo at 30 mg/kg in assay [2] (30 mg/kg bid po) is less than 30%.
Take “N-[5-(4-cyanophenyl)-4-(trifluoromethyl)-1,3-thiazol-2-yl]-4,6-dimethoxypyrimidine-5-carboxamide [Example 41]”: in assay [1], the IC50 was less than 50 nM. Also, the FITC % effect result in assay [2] (30 mg/kg bid po) was “C (a reduction in ear skin thickness of <30% relative to vehicle-treated animals)”.
Consider `COc1ncnc(OC)c1C(=O)Nc1nc(C(F)(F)F)c(-c2ccnc(C(C)(C)C#N)c2)s1` [Example 33, N-{5-[2-(2-cyanopropan-2-yl)pyridin-4-yl]-4-(trifluoromethyl)-1,3-thiazol-2-yl}-4,6-dimethoxypyrimidine-5-carboxamide], for which the IC50 in assay [1] was in the range of 50 to 100 nM. Besides, in assay [2] (30 mg/kg qd po), the inhibition in vivo at 30 mg/kg is greater than 50%.
Turning to `COc1ncnc(OC)c1C(=O)Nc1nc(C(F)(F)F)c(CNCC(C)C)s1` [Example 52, 4,6-dimethoxy-N-[5-{[(2-methylpropyl)amino]methyl}-4-(trifluoromethyl)-1,3-thiazol-2-yl]pyrimidine-5-carboxamide], in assay [1], the half-inhibitory concentration (IC50) lay in the range of 50 to 100 nM. In addition, the inhibition in vivo at 10 mg/kg in assay [2] (10 mg/kg qd po) lay in the range of 30 to 50%.
On to `COc1ncnc(OC)c1C(=O)Nc1nc(C(F)(F)F)c(CN2CCC(OC)CC2)s1` [Example 48, 4,6-dimethoxy-N-{5-[(4-methoxypiperidin-1-yl)methyl]-4-(trifluoromethyl)-1,3-thiazol-2-yl}pyrimidine-5-carboxamide], for which the IC50 in assay [1] lay within 100 to 500 nM. The inhibition in vivo at 30 mg/kg in assay [2] (30 mg/kg bid po) is less than 30%.
The corresponding values for `COc1ncnc(OC)c1C(=O)Nc1nc(C(F)(F)F)c(-c2cnc(C(F)(F)F)nc2)s1` [Example 202, 4,6-dimethoxy-N-{4-(trifluoromethyl)-5-[2-(trifluoromethyl)pyrimidin-5-yl]-1,3-thiazol-2-yl}pyrimidine-5-carboxamide] are less than 50 nM and less than 30%.
Consider `COc1ncnc(OC)c1C(=O)Nc1nc(C(F)(F)F)c(-c2ccnc(C#N)c2)s1` [Example 66, N-[5-(2-cyanopyridin-4-yl)-4-(trifluoromethyl)-1,3-thiazol-2-yl]-4,6-dimethoxypyrimidine-5-carboxamide], for which the IC50 in assay [1] is 50 to 100 nM. Also, the inhibition in vivo at 100 mg/kg in assay [2] is greater than 50%.
`COc1ncnc(OC)c1C(=O)Nc1nc(C(F)(F)F)c(-c2cncc(C(F)(F)F)c2)s1` [Example 196, 4,6-dimethoxy-N-{4-(trifluoromethyl)-5-[5-(trifluoromethyl)pyridin-3-yl]-1,3-thiazol-2-yl}pyrimidine-5-carboxamide]: the 50% inhibitory concentration (IC50) in assay [1] was less than 50 nM. Moreover, in assay [2] (30 mg/kg bid po), the inhibition in vivo at 30 mg/kg was less than 30%.
Regarding `COc1ncnc(OC)c1C(=O)N(COP(=O)(O)O)c1nc(-c2ccc(C(F)(F)F)cn2)cs1` [Example 74, ([(4,6-dimethoxypyrimidin-5-yl)carbonyl]{4-[5-(trifluoromethyl)pyridin-2-yl]-1,3-thiazol-2-yl}amino)methyl dihydrogen phosphate], the inhibition in vivo at 100 mg/kg in assay [2] was greater than 50%.
For `COc1ncnc(OC)c1C(=O)Nc1nc(C(F)(F)F)c(-c2ccc3nonc3c2)s1` [Example 199, N-[5-(2,1,3-benzoxadiazol-5-yl)-4-(trifluoromethyl)-1,3-thiazol-2-yl]-4,6-dimethoxypyrimidine-5-carboxamide], the IC50 in assay [1] was less than 50 nM. The inhibition in vivo at 30 mg/kg in assay [2] (30 mg/kg bid po) lay in the range of 30 to 50%.
For `COc1ncnc(OC)c1C(=O)Nc1nc(C(F)(F)F)c(-c2cccc(C#N)c2)s1` [Example 40, N-[5-(3-cyanophenyl)-4-(trifluoromethyl)-1,3-thiazol-2-yl]-4,6-dimethoxypyrimidine-5-carboxamide], in that order: less than 50 nM and less than 30%.
For `COc1ncnc(OC)c1C(=O)Nc1nc(C(F)(F)F)c(-c2cc(C(F)(F)F)nn2C)s1` [Example 65, 4,6-dimethoxy-N-{5-[1-methyl-3-(trifluoromethyl)-1H-pyrazol-5-yl]-4-(trifluoromethyl)-1,3-thiazol-2-yl}pyrimidine-5-carboxamide], in that order: less than 50 nM and less than 30%.
The corresponding values for `COc1ncnc(OC)c1C(=O)Nc1nc(C(F)(F)F)c(-c2cccnc2C#N)s1` [Example 42, N-[5-(2-cyanopyridin-3-yl)-4-(trifluoromethyl)-1,3-thiazol-2-yl]-4,6-dimethoxypyrimidine-5-carboxamide] are less than 50 nM and less than 30%.
In the case of `COc1ncnc(OC)c1C(=O)Nc1nc(C(F)(F)F)c(-c2cccnc2C)s1` [Example 64, 4,6-dimethoxy-N-[5-(2-methylpyridin-3-yl)-4-(trifluoromethyl)-1,3-thiazol-2-yl]pyrimidine-5-carboxamide], the concentration for half-maximal inhibition (IC50) in assay [1] was less than 50 nM. For the same compound, the inhibition in vivo at 30 mg/kg in assay [2] (30 mg/kg qd po) was 30 to 50%.
For `COc1ncnc(OC)c1C(=O)Nc1nc(C2CCCC2)cs1` [Example 98, N-(4-cyclopentyl-1,3-thiazol-2-yl)-4,6-dimethoxypyrimidine-5-carboxamide], in assay [1], the IC50 was 100 to 500 nM.
Still for that read-out and setting: the result for `COc1ncnc(OC)c1C(=O)Nc1nc(C(F)(F)F)c(C#CC2CC2)s1` [Example 14, N-[5-(cyclopropylethynyl)-4-(trifluoromethyl)-1,3-thiazol-2-yl]-4,6-dimethoxypyrimidine-5-carboxamide] reads less than 50 nM; that for `COc1ncnc(OC)c1C(=O)Nc1nc(C(F)(F)F)c(CN2CCC3(CC2)COC3)s1` [Example 61, 4,6-dimethoxy-N-[5-(2-oxa-7-azaspiro[3.5]non-7-ylmethyl)-4-(trifluoromethyl)-1,3-thiazol-2-yl]pyrimidine-5-carboxamide], 100 to 500 nM; that for `COc1ncnc(OC)c1C(=O)Nc1nc(C(F)(F)F)c(-c2cnccn2)s1` [Example 28, 4,6-dimethoxy-N-[5-(pyrazin-2-yl)-4-(trifluoromethyl)-1,3-thiazol-2-yl]pyrimidine-5-carboxamide], 500 to 1000 nM.
